Source: paper PMC7504092, “Synthesis and Antiplasmodial Evaluation of 4-Carboxamido- and 4-Alkoxy-2-Trichloromethyl Quinazolines” (Molecules, 2020)
Read-outs that look alike come from different tables or passages of the source. Values belong to the compound of their own block, whether it stands above or below them.

Columns and labels:
[1] = test system: K1 P. falciparum strain; test: In vitro antiplasmodial evaluation (SYBR Green I fluorescence-based method); type: cell-based; details: for EC50: read-out: PfK1 EC50; for SI (selectivity index = CC50/EC50): CC50 HepG2 / EC50 PfK1; for IC50: K1, Figures 2 and 3, read-out: IC50 P. falci. K1; for activity against P. falciparum (in words): K1 strain
Experimental: It was maintained in continuous culture as described previously by Trager and Jensen. […] Parasitemia was maintained daily at between 1 and 3%. The P. falciparum drug susceptibility test was carried out by comparing quantities of DNA in treated and control cultures of parasite in human erythrocytes according to an SYBR Green I fluorescence-based method using a 96-well fluorescence plate reader. […] Duplicate assays were performed for each sample. After incubation, plates were frozen at -20 °C for 24 h. […] Fifteen μL of each sample were transferred to 96-well flat bottom non-sterile black plates (Greiner Bio-one) already containing 15 μL of the SYBR Green I lysis buffer (2X SYBR Green I, 20 mM Tris base pH 7.5, 20 mM EDTA, 0.008% w/v saponin, 0.08% w/v Triton X-100).

[2] = In vitro cytotoxicity evaluation (MTT); type: cell-based; details: human
Experimental: Triplicate assays were performed for each sample. Each plate-well was then microscope-examined for possible precipitate formation before the medium was aspirated from the wells. 100 μL of MTT (3-(4,5-dimethyl-2-thiazolyl)-2,5-diphenyl-2H-tetrazolium bromide) solution (0.5 mg/mL in medium without FBS) were then added to each well. […] After this time, the MTT solution was removed and DMSO (100 μL) was added to dissolve the resulting blue formazan crystals. Plates were shaken vigorously (700 rpm) for 10 min. The absorbance was measured at 570 nm with 630 nm as reference wavelength using a BIO-TEK ELx808 Absorbance Microplate Reader (LabX, Midland, ON, Canada). DMSO was used as blank and doxorubicin (purchased from Sigma Aldrich) as positive control. Cell viability was calculated as percentage of control (cells incubated without compound). […] CC50 values represent the mean value calculated from three independent experiments.

[3] = Plasmodium falciparum, K1, 72 h, multi-resistant K1 P. falciparum strain, 72 h incubation
[4] = multi-resistant K1 P. falciparum strain, 72 h incubation

EC50 [1, 3]: 3.5 µM
Compound: N#Cc1ccc(C(=O)Nc2nc(C(Cl)(Cl)Cl)nc3ccccc23)cc1 [Molecule 15, 4-Cyano-N-(2-Trichloromethylquinazolin-4-yl)benzamide]
CC50 at 72 h [2]: 31.4 µM

IC50 ([1]; Plasmodium falciparum): 0.94 µM
Compound: COc1ccc(C(=O)Nc2nc(C(Cl)(Cl)Cl)nc3ccccc23)cc1 [Molecule 16, 4-Methoxy-N-(2-Trichloromethylquinazolin-4-yl)benzamide]
CC50 at 72 h [2]: 27.7 µM

EC50 [1, 3]: 3.9 µM
melting point: 208 °C
Compound: O=C(Nc1nc(C(Cl)(Cl)Cl)nc2ccccc12)c1cccnc1 [Molecule 18, N-(2-Trichloromethylquinazolin-4-yl)nicotinamide]
SI (selectivity index = CC50/EC50) [1]: 18.7
CC50 at 72 h [2]: 72.9 µM

EC50 [1, 3]: 1.8 µM
melting point: 151 °C
Compound: O=C(Nc1nc(C(Cl)(Cl)Cl)nc2ccccc12)c1ccncc1 [Molecule 19, N-(2-Trichloromethylquinazolin-4-yl)isonicotinamide]
SI (selectivity index = CC50/EC50) [1]: 12.7
CC50 at 72 h [2]: 22.8 µM

EC50 [1, 3]: 3.5 µM
melting point: 161 °C
Compound: CC(C)C(=O)Nc1nc(C(Cl)(Cl)Cl)nc2ccccc12 [Molecule 22, N-(2-Trichloromethylquinazolin-4-yl)isobutyramide]
SI (selectivity index = CC50/EC50) [1]: >9.0
CC50 at 72 h [2]: > 31.2 µM

EC50 [1, 3]: 1.8 µM
melting point: 157 °C
Compound: CC(C)(C)C(=O)Nc1nc(C(Cl)(Cl)Cl)nc2ccccc12 [Molecule 23, N-(2-Trichloromethylquinazolin-4-yl)pivalamide]
SI (selectivity index = CC50/EC50) [1]: 19.4
CC50 at 72 h [2]: 34.9 µM

EC50 [1, 3]: 2.4 µM
melting point: 214 °C
Compound: O=C(Nc1nc(C(Cl)(Cl)Cl)nc2ccccc12)C1CCCCC1 [Molecule 25, N-(2-Trichloromethylquinazolin-4-yl)cyclohexanecarboxamide]
SI (selectivity index = CC50/EC50) [1]: >6.5
CC50 at 72 h [2]: > 15.6 µM

EC50 [1, 3]: 7.1 µM
melting point: 83 °C
Compound: COc1nc(C(Cl)(Cl)Cl)nc2ccccc12 [Molecule 26, 4-Methoxy-2-Trichloromethylquinazoline]
SI (selectivity index = CC50/EC50) [1]: 5.5
CC50 at 72 h [2]: 39.3 µM

EC50 [1, 3]: 4.7 µM
melting point: 73 °C
Compound: CCOc1nc(C(Cl)(Cl)Cl)nc2ccccc12 [Molecule 27, 4-Ethoxy-2-Trichloromethylquinazoline]
SI (selectivity index = CC50/EC50) [1]: 10
CC50 at 72 h [2]: 47.1 µM

EC50 [1, 3]: 3.5 µM
melting point: 39 °C
Compound: CCCOc1nc(C(Cl)(Cl)Cl)nc2ccccc12 [Molecule 28, 4-Propoxy-2-Trichloromethylquinazoline]
SI (selectivity index = CC50/EC50) [1]: 15
CC50 at 72 h [2]: 54.8 µM

EC50 [1, 3]: > 10 µM
melting point: 210 °C
Compound: CC(C)Oc1nc(C(Cl)(Cl)Cl)nc2ccccc12 [Molecule 30, 4-Isopropoxy-2-Trichloromethylquinazoline]
SI (selectivity index = CC50/EC50) [1]: <10
activity against P. falciparum (in words) [1]: inactive
CC50 at 72 h [2]: 102 µM

EC50 [1, 3]: 3.4 µM
melting point: 62 °C
Compound: C#CCOc1nc(C(Cl)(Cl)Cl)nc2ccccc12 [Molecule 31, 4-(Prop-2-ynyloxy)-2-Trichloromethylquinazoline]
SI (selectivity index = CC50/EC50) [1]: 14.6
CC50 at 72 h [2]: 49.6 µM

EC50 [1, 3]: 1.4 µM
Compound: ClC(Cl)(Cl)c1nc(OCCN2CCCCC2)c2ccccc2n1 [Molecule 43, 4-[2-(Piperidin-1-yl)ethoxy]-2-Trichloromethylquinazoline]
SI (selectivity index = CC50/EC50) [1]: 16.5
CC50 at 72 h [2]: 23.4 µM

EC50 [1, 3]: ≤ 2 µM
EC50 [1, 4]: 1.3 µM
Compound: ClC(Cl)(Cl)c1nc(OCCN2CCCC2)c2ccccc2n1 [Molecule 44, 4-[2-(Pyrrolidin-1-yl)ethoxy]-2-Trichloromethylquinazoline]
CC50 at 72 h [2]: 43.7 µM

IC50 ([1]; Plasmodium falciparum): > 50 µM
Compound: COc1ccc(C(=O)Nc2nc(C)nc3ccccc23)cc1 [Molecule 45, 4-methoxy-N-(2-Methylquinazolin-4-yl)benzamide]
activity against P. falciparum (in words) [1]: inactive

IC50 ([1]; Plasmodium falciparum): > 50 µM
melting point: 190 °C
Compound: COc1ccc(C(=O)Nc2nc(C(F)(F)F)nc3ccccc23)cc1 [Molecule 46, 4-methoxy-N-(2-Trifluoromethylquinazolin-4-yl)benzamide]
activity against P. falciparum (in words) [1]: inactive

IC50 ([1]; Plasmodium falciparum): > 50 µM
melting point: 230 °C
Compound: CCN(CC)CCOc1nc(C)nc2ccccc12 [Molecule 47, N,N-Diethyl-2-[(2-Methylquinazolin-4-yl)oxy]ethanamine]
activity against P. falciparum (in words) [1]: inactive

IC50 ([1]; Plasmodium falciparum): > 50 µM
Compound: CCN(CC)CCOc1nc(C(F)(F)F)nc2ccccc12 [Molecule 48, N,N-Diethyl-2-[(2-Trifluoromethylquinazolin-4-yl)oxy]ethan-1-Amine]
activity against P. falciparum (in words) [1]: inactive

IC50 ([1]; Plasmodium falciparum): > 50 µM
Compound: CCN(CC)CCOc1ncnc2ccccc12 [Molecule 49, N,N-Diethyl-2-(Quinazolin-4-yloxy)ethanamine]
activity against P. falciparum (in words) [1]: inactive

Further lines, the compound ahead of its results:

Compound: CCN(CC)CCCC(C)Nc1ccnc2cc(Cl)ccc12 (stereo not shown) [Chloroquine, reference compound]
EC50 ([1]; Plasmodium falciparum, K1, 72 h): 0.8 µM

Compound: COc1cccc2c1C(=O)c1c(O)c3c(c(O)c1C2=O)C[C@@](O)(C(=O)CO)C[C@@H]3O[C@H]1C[C@H](N)[C@H](O)[C@H](C)O1 [Doxorubicin, reference compound]
CC50 at 72 h [2]: 0.2 µM

Compound: C[C@H]1c2cccc(O)c2C(=O)C2=C(O)[C@]3(O)C(=O)C(C(N)=O)=C(O)[C@@H](N(C)C)[C@@H]3[C@@H](O)[C@@H]21 [Doxycycline, reference compound]
EC50 [1, 3]: 6 µM
CC50 at 72 h [2]: 20 µM

Compound: O=C(Nc1nc(C(Cl)(Cl)Cl)nc2ccccc12)c1ccc(Cl)cc1 [Molecule 2, 4-Chloro-N-(2-Trichloromethylquinazolin-4-yl)benzamide]
CC50 at 72 h [2]: 21 µM
melting point: 199 °C

Compound: O=C(c1ccc(Cl)cc1)N(C(=O)c1ccc(Cl)cc1)c1nc(C(Cl)(Cl)Cl)nc2ccccc12 [Molecule 3, 4-Chloro-N-(4-Chlorobenzoyl)-N-(2-Trichloromethylquinazolin-4-yl)benzamide]
SI (selectivity index = CC50/EC50) [1]: 13.7
EC50 [1, 3]: 1.46 µM
CC50 at 72 h [2]: 20 µM
melting point: 218.2 °C

Compound: O=C(Nc1nc(C(Cl)(Cl)Cl)nc2ccccc12)c1ccccc1 [Molecule 5, N-(2-Trichloromethylquinazolin-4-yl)benzamide]
SI (selectivity index = CC50/EC50) [1]: 13.8
EC50 [1, 3]: 1.76 µM
CC50 at 72 h [2]: 24.2 µM
melting point: 183 °C

Compound: O=C(Nc1nc(C(Cl)(Cl)Cl)nc2ccccc12)c1ccc([N+](=O)[O-])cc1 [Molecule 6, 4-Nitro-N-(2-Trichloromethylquinazolin-4-yl)benzamide]
SI (selectivity index = CC50/EC50) [1]: 5.3
EC50 [1, 3]: 4.18 µM
CC50 at 72 h [2]: 22.1 µM
melting point: 214 °C

Compound: O=C(Nc1nc(C(Cl)(Cl)Cl)nc2ccccc12)c1cccc([N+](=O)[O-])c1 [Molecule 7, 3-Nitro-N-(2-Trichloromethylquinazolin-4-yl)benzamide]
EC50 [1, 3]: 3.37 µM
CC50 at 72 h [2]: 24.8 µM

Compound: O=C(Nc1nc(C(Cl)(Cl)Cl)nc2ccccc12)c1ccc(F)cc1 [Molecule 9, 4-Fluoro-N-(2-Trichloromethylquinazolin-4-yl)benzamide]
EC50 [1, 3]: ≤ 2 µM
EC50 [1, 4]: 1.34 µM
CC50 at 72 h [2]: 29.4 µM
melting point: 166 °C

Compound: O=C(Nc1nc(C(Cl)(Cl)Cl)nc2ccccc12)c1cccc(F)c1 [Molecule 10, 3-Fluoro-N-(2-Trichloromethylquinazolin-4-yl)benzamide]
SI (selectivity index = CC50/EC50) [1]: 6.9
EC50 [1, 3]: 2.86 µM
CC50 at 72 h [2]: 19.9 µM
melting point: 152 °C

Compound: O=C(Nc1nc(C(Cl)(Cl)Cl)nc2ccccc12)c1cccc(Cl)c1 [Molecule 12, 3-Chloro-N-(2-Trichloromethylquinazolin-4-yl)benzamide]
EC50 [1, 3]: 1.54 µM
CC50 at 72 h [2]: 16.4 µM

Compound: O=C(Nc1nc(C(Cl)(Cl)Cl)nc2ccccc12)c1ccccc1Cl [Molecule 13, 2-Chloro-N-(2-Trichloromethylquinazolin-4-yl)benzamide]
EC50 [1, 3]: 9.04 µM
CC50 at 72 h [2]: 27.3 µM

Compound: O=C(Nc1nc(C(Cl)(Cl)Cl)nc2ccccc12)c1ccc(Br)cc1 [Molecule 14, 4-Bromo-N-(2-Trichloromethylquinazolin-4-yl)benzamide]
EC50 [1, 3]: 1.3 µM
CC50 at 72 h [2]: 19.5 µM

Compound: CCCCOc1nc(C(Cl)(Cl)Cl)nc2ccccc12 [Molecule 29, 4-Butoxy-2-Trichloromethylquinazoline]
SI (selectivity index = CC50/EC50) [1]: 14.2
EC50 [1, 3]: 5.8 µM
CC50 at 72 h [2]: 82.4 µM

Compound: ClCCCCOc1nc(C(Cl)(Cl)Cl)nc2ccccc12 [Molecule 38, 4-(4-Chlorobutoxy)-2-Trichloromethylquinazoline]
SI (selectivity index = CC50/EC50) [1]: 11.7
EC50 [1, 3]: 4.3 µM
CC50 at 72 h [2]: 50.5 µM
